The source of these data is patent US10512652B2, “Use of cymanquine compounds as antimalarial agents” (priority 2015, dated 2019).

For data set [1], the system named is P. falciparum strain D10ydhod. The data set can be described thus: [3H]-hypoxanthine incorporation growth inhibition, strain D10ydhod. Type of data set: cell-based, Plasmodium falciparum. Particulars: strain D10ydhod (expresses S. cerevisiae dihydroorotate dehydrogenase). The procedure:
(§1) P. falciparum strains were cultured under standard conditions in RPMI1640 medium supplemented with 0.5% Albumax in 90% N2, 5% 02 and 5% CO2. A modified version of the [^3H]-hypoxanthine incorporation method was employed for assessing growth inhibition by the inhibitor compounds. Briefly, P. falciparum strain Dd2 or strain D10ydhod (this strain express the Saccharomyces cerevisiae dihydroorotate dehydrogenase enzyme which renders mitochondrial electron transport nonessential in the parasite) parasites were seeded at 2% parasitemia in 96-well plates and treated with varying concentration of the inhibitors as well as the solvent (DMSO) for 24 h. [^3H]-Hypoxanthine was added to the cultures and incubation was continued for an additional 24 h. Incorporation of [^3H]-hypoxanthine by the parasites was determined by liquid scintillation. Growth inhibition was assessed as decrease in [^3H]-hypoxanthine incorporation in treated parasites relative to the control parasites treated with the solvent. The dose-response data were analyzed using nonlinear regression analysis (Prism GraphPad), and the EC50 was derived using an inhibitory sigmoid maximum effect (Emax) model. Each assay is completed in triplicate and the average EC50 was calculated. […]

The test system of the next data set is P. falciparum strain Dd2. The data set can be described thus: [3H]-hypoxanthine incorporation growth inhibition, strain Dd2. The conditions noted are these: multidrug resistant strain Dd2; 24 h treatment + 24 h [3H]-hypoxanthine; average of triplicate. Type of data set: cell-based, Plasmodium falciparum. The procedure:
as §1

A short description of data set [2]: Cyclic voltammetry, anodic oxidation. Type of data set: physicochemical. Particulars: irreversible, anodic peak potential, dichloromethane/0.05 M [NBu4][B(C6F5)4]. The method, then:
Electrochemical studies were carried out. The electrolyte solution used for these studies, namely dichloromethane with 0.05 M [NBu4][B(C6F5)4] as the supporting electrolyte, is known to provide an optimum medium for the electrochemical oxidation of compounds containing the MnCp(CO)3 (Cp=η^5-C5H5) backbone (Laws et al., J. Am. Chem. Soc. 2008, 130, 9859). The potentials given here are referred to the ferrocene/ferrocenium reference couple. The experiments were carried out in a controlled atmosphere which minimizes exposure to oxygen and water. We refer to two types of standard electrochemical techniques that are commonly described in books on electrochemistry: cyclic voltammetry and bulk electrolysis (Bard, A. J.; Faulkner, L. R. Electrochemical Methods, John Wiley & Sons, New York, 2001, second edition) The former is useful for the analytical and gross mechanistic aspects of the electron-transfer properties of a compound, whereas the latter is most often employed for the electro-synthetic function of making isolable quantities of electrochemical oxidation or reduction products.
Anodic oxidation of the three compounds was investigated. […]
Table of potentials (vs ferrocene/ferrocenium (FcH)) measured by cyclic voltammetry for oxidation of compounds 3, 4, and 5 in dichloromethane/0.05 M [NBu4][B(C6F5)4]. […]

cymanquine [Compound 3]: the “potency against strain D10ydhod compared with strain Dd2” value in data set [1] is “Equivalent potency”. For the same substance, the EC50 with P. falciparum strain Dd2 is approximately 10.8 nM. In data set [2] (first oxidation), the “Ep(1)” value is 0.82 V vs FcH. For the same substance, the “Ep(2)” value in data set [2] (second oxidation) is listed as 1.25 V vs FcH.
